Source: patent publication US8937167B2 (Washington University, priority 2009, dated 2015)
Where two headings read alike, the source gives them in different places.

Tests used:
[1] = test system: UTI89 biofilm; test: UTI89 type 1 dependent biofilm formation (inhibition/prevention) assay on PVC, crystal violet; format: cell-based, uropathogenic E. coli UTI89; details: Escherichia coli
Procedure: In yet other embodiments, activity of the compound may be measured using the ability of the compound to prevent or disrupt biofilm formation.
UTI89 biofilm was grown in LB+/− mannoside for 24 h at 22° C. in PVC plates and quantitated using crystal violet. UTI89 biofilm for confocal microscopy was grown in LB for 24 h at 22° C. on PVC coverslips. Mannoside was then added and biofilm was grown for an additional 16 h. Coverslips were then washed in PBS, fixed in 2% paraformaldehyde and stained with SYTO9 prior to confocal microscopy. For all animal experiments UTI89 or PBC-1 was grown 2×24 h statically in LB at 37° C. and inoculated at a dose of 1×10^7 bacteria in 50 μl. All mice used were female C3H/HeN (Jackson). For the pretreatment studies, bacteria were incubated with mannoside for 20 min prior to inoculation into the mouse. […] For CFU counts, bladders were harvested at 6 hpi and placed in 1 mL PBS. Bladders were then homogenized, diluted and plated on LB. After growth at 37° C. overnight, bacterial counts were determined. LacZ staining and gentamicin protection assays were performed at 6 hpi. […] Water was changed daily with fresh antibiotics. Standard growth curve assays and hemagglutination assays were performed with TMP-SMZ. All statistical analysis performed was a two-tailed Mann-Whitney U test.
(§1) Biofilm assay. UTI89 was grown in LB broth in wells of PVC microtiter plates at 23° C. in the presence of individual mannosides at varying concentrations. After 48 h of growth, wells were rinsed with water and stained with crystal violet for quantification as described. For biofilm disruption activity in PVC plates, UTI89 was grown in LB broth in wells of PVC microtiter plates at 23° C. After 24 h of growth, mannoside was added and biofilms were grown for an additional 16 h. Wells were then rinsed, stained with crystal violet and quantified. For biofilm disruption activity on PVC coverslips, UTI89 was grown in LB broth in 50 mL conicals containing PBC coverslips at 23° C. After 24 h of growth, 0.3 μM ZFH-2056 was added and biofilm was grown for an additional 16 h.
UTI89 biofilm was grown in LB+/− mannoside for 24 h at 22° C. in PVC plates and quantified using crystal violet. UTI89 biofilm for confocal microscopy was grown in LB for 24 h at 22° C. on PVC coverslips followed by mannoside treatment for 16 h. For all animal experiments UTI89 or PBC-1 was grown 2×24 h statically in LB at 37° C. and inoculated at a dose of 1×10^7 bacteria in 50 μl. All mice used were female C3H/HeN (Harlan). For the chronic UTI model, mice were infected for 2 weeks prior to treatment with mannoside. […] For oral dosing, 100 μl of 10 mg/ml (50 mg/kg) or 20 mg/ml (100 mg/kg) mannoside in 8% DMSO was inoculated with a gavage needle 30 min prior to inoculation of bacteria. […] For CFU counts, bladders were harvested at 6 hpi and placed in 1 mL PBS. Bladders were then homogenized, diluted and plated on LB. After growth at 37° C. overnight, bacterial counts were determined. LacZ staining and gentamicin protection assays were performed at 6 hpi. […] Water was changed daily with fresh antibiotics. Standard growth curve and hemagglutination assays were performed. All statistical analysis performed was a two-tailed Mann-Whitney U test. […] Compounds 7-10 were prepared using slightly modified procedures. All compounds are >95% pure as determined by HPLC/MS and ^1H NMR.
as §1, with “UTI89” for “Biofilm assay. UTI89”, “For biofilm disruption activity on PVC coverslips, UTI89 was grown in LB broth in 50 mL conicals containing PBC coverslips at 23° C. After 24 h of growth, 0.3 μM ZFH-2056 was added and biofilm was grown for an additional 16 h.” left out

[2] = target: FimH (Escherichia coli, UniProt P08191); test: biochemical; format: binding, E. coli; details: Table 13; competition with FAM mannoside 20; read-out: FP Binding EC50
Source text: In order to more accurately determine the relative contributions of both binding affinity to FimH versus other compound properties to the potency seen in the cellular HA titer assay, a high-throughput fluorescence polarization (FP) (or anisotropy) competitive binding assay was developed using a fluorescent-labeled mannoside ligand shown in Scheme 4.
A fluorescent polarization assay was developed and miniaturized to monitor the direct binding of a synthesized fluorescently labeled butyl mannose derivative to the FimH receptor as well as competitive displacement by other synthetic mannosides. This fluorescent polarization assay provides a rapid method for monitoring improvements to receptor affinity during the synthetic process, as well as providing Kd binding affinity measurements.

[3] = target: FimH (Escherichia coli, UniProt Q1R2J4); details: for HAI Titer EC>50: Table 21;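 as to all read-outs here: hemagglutination inhibition of guinea pig erythrocytes agglutinated by type 1 piliated uropathogenic E. coli via FimH mannose binding, quantified through serial dilutions of compound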
[4] = read-out: Biofilm IC50 [calculated]
[5] = read-out: Biofilm Prevention IC50
[6] = read-out: Biofilm IC50 (approximated)
[7] = Table 18, Examples 30-36 numbering
[8] = Table 19, Examples 30-36 numbering
[9] = read-out: HA 50% titer EC90, Table 12, Example 6 numbering

Cc1cc(=O)oc2cc(OC3OC(CO)C(O)C(O)C3O)ccc12 [4-methylumbellferyl-α-D-mannoside, reference compound]
IC50 [1, 4]: 1.7 µM

CCCCO[C@H]1O[C@H](CO)[C@@H](O)[C@H](O)[C@@H]1O [Butylman]
EC50 [2]: 0.245 µM

CCCCOC1OC(CO)C(O)C(O)C1O (stereo not shown) [Compound 1ZFH84]
IC50 [1, 5]: ~500 µM | HAI Titer EC>50 ([3]; ZFH/JWJ codes): 125.000 µM

COC(=O)Cc1ccc(OC2OC(CO)C(O)C(O)C2O)cc1 (stereo not shown) [Compound 1ZFH171, methyl 2-[4-[3,4,5-trihydroxy-6-(hydroxymethyl)tetrahydropyran-2-yl]oxyphenyl]acetate]
IC50 [1, 6]: ~100 µM | HAI Titer EC>90 [3]: 30.000 µM

CCc1ccc(OC2OC(CO)C(O)C(O)C2O)cc1 (stereo not shown) [Compound 1ZFH178, 2-(4-ethylphenoxy)-6-(hydroxymethyl)tetrahydropyran-3,4,5-triol]
IC50 [1, 6]: 10 to 100 µM | IC50 [1, 4]: ~90 µM | HAI Titer EC>90 [3]: 23.000 µM

CCCc1ccc(OC2OC(CO)C(O)C(O)C2O)cc1 (stereo not shown) [Compound 1ZFH179, 2-(hydroxymethyl)-6-(4-propylphenoxy)tetrahydropyran-3,4,5-triol]
IC50 [1, 6]: 10 to 100 µM | IC50 [1, 4]: ~55 µM | HAI Titer EC>90 [3]: 15.000 µM

O=C1Cc2cc(OC3OC(CO)C(O)C(O)C3O)ccc2O1 (stereo not shown) [Compound 1ZFH231, 5-[3,4,5-trihydroxy-6-(hydroxymethyl)tetrahydropyran-2-yl]oxy-3H-benzofuran-2-one]
IC50 [1, 6]: ~25 µM | HAI Titer EC>90 [3]: 8.000 µM

O=C1NC2C=CC(OC3OC(CO)C(O)C(O)C3O)=CC2O1 (stereo not shown) [Compound 1ZFH256, 6-[3,4,5-trihydroxy-6-(hydroxymethyl)tetrahydropyran-2-yl]oxy-3a,7a-dihydro-3H-1,3-benzoxazol-2-one]
IC50 [1, 6]: 10 to 25 µM | IC50 [1, 4]: ~15 µM | HAI Titer EC>90 [3]: 4.000 µM

COC(=O)c1sc(-c2ccc(OC3OC(CO)C(O)C(O)C3O)cc2)cc1NC(N)=O (stereo not shown) [Compound 4ZFH52]
IC50 [1, 5]: 0.181 µM | HAI Titer EC>50 ([3]; ZFH/JWJ codes): 0.016 µM

CNC(=O)c1cccc(-c2ccc(OC3O[C@@H](CO)[C@@H](O)[C@H](O)[C@H]3O)c(Cl)c2)c1 (stereo partly drawn) [Compound 4ZFH170, 3-[3-chloro-4-[(3R,4S,5S,6S)-3,4,5-trihydroxy-6-(hydroxymethyl)tetrahydropyran-2-yl]oxy-phenyl]-N-methyl-benzamide]
IC50 [1, 5]: 0.523 µM | HAI Titer EC>90 [3]: 0.125 µM | HAI Titer EC>50 ([3]; ZFH/JWJ codes): 0.125 µM | HAI Titer EC>90 ([3]; Table 22, ZFH/JWJ codes): 0.125 µM

COC(=O)c1cccc(-c2ccc(OC3O[C@@H](CO)[C@@H](O)[C@H](O)[C@H]3O)c(C)c2)c1 (stereo partly drawn) [Compound 4ZFH224, methyl 3-[3-methyl-4-[(3R,4S,5S,6S)-3,4,5-trihydroxy-6-(hydroxymethyl)tetrahydropyran-2-yl]oxy-phenyl]benzoate]
IC50 [1, 5]: 0.333 µM | HAI Titer EC>90 [3]: 0.125 µM | HAI Titer EC>50 ([3]; ZFH/JWJ codes): 0.125 µM | HAI Titer EC>90 ([3]; Table 22, ZFH/JWJ codes): 0.125 µM

COC(=O)c1cccc(-c2ccc(OC3O[C@@H](CO)[C@@H](O)[C@H](O)[C@H]3O)c(OC)c2)c1 (stereo partly drawn) [Compound 4ZFH228, methyl 3-[3-methoxy-4-[(3R,4S,5S,6S)-3,4,5-trihydroxy-6-(hydroxymethyl)tetrahydropyran-2-yl]oxy-phenyl]benzoate]
IC50 [1, 5]: 0.886 µM | HAI Titer EC>90 [3]: 0.188 µM | HAI Titer EC>50 ([3]; ZFH/JWJ codes): 0.188 µM | HAI Titer EC>90 ([3]; Table 22, ZFH/JWJ codes): 0.188 µM

COC(=O)c1cccc(-c2ccc(O[C@H]3O[C@H](CO)[C@@H](O)[C@H](O)[C@@H]3O)c(OC)c2)c1 [Compound 4e, Methyl 3-[3-methoxy-4-[(2R,3S,4S,5S,6R)-3,4,5-trihydroxy-6-(hydroxymethyl)tetrahydropyran-2-yl]oxy-phenyl]benzoate]
IC50 [1, 5]: 0.89 µM | HAI Titer EC>90 ([3]; Table 17, Examples 30-36 numbering): 0.19 µM

O=C(NCCO)c1cccc(-c2ccc(O[C@H]3O[C@H](CO)[C@@H](O)[C@H](O)[C@@H]3O)cc2)c1 [Compound 10a, N-(2-Hydroxyethyl)-3-[4-[(2R,3S,4S,5S,6R)-3,4,5-trihydroxy-6-(hydroxymethyl)tetrahydropyran-2-yl]oxyphenyl]benzamide]
HAI Titer EC>90 [3, 7]: 0.50 µM

NCCNC(=O)c1cccc(-c2ccc(O[C@H]3O[C@H](CO)[C@@H](O)[C@H](O)[C@@H]3O)cc2)c1 [Compound 10b, N-(2-Aminoethyl)-3-[4-[(2R,3S,4S,5S,6R)-3,4,5-trihydroxy-6-(hydroxymethyl)tetrahydropyran-2-yl]oxyphenyl]benzamide]
HAI Titer EC>90 [3, 7]: 3.0 µM | fold drop in HAI activity ([3]; relative to methyl amide 2): 6 fold

O=C(Nc1ccncc1)c1cccc(-c2ccc(O[C@H]3O[C@H](CO)[C@@H](O)[C@H](O)[C@@H]3O)cc2)c1 [Compound 10e, N-(4-Pyridyl)-3-[4-[(2R,3S,4S,5S,6R)-3,4,5-trihydroxy-6-(hydroxymethyl)tetrahydropyran-2-yl]oxyphenyl]benzamide]
HAI Titer EC>90 [3, 7]: 0.25 µM

COC(=O)c1cncc(-c2ccc(O[C@H]3O[C@H](CO)[C@@H](O)[C@H](O)[C@@H]3O)cc2)c1 [Compound 12b, Methyl 5-[4-[(2R,3S,4S,5S,6R)-3,4,5-trihydroxy-6-(hydroxymethyl)tetrahydropyran-2-yl]oxyphenyl]pyridine-3-carboxylate]
HAI Titer EC>90 [3, 8]: 0.19 µM

COC(=O)c1ccc(-c2ccc(O[C@H]3O[C@H](CO)[C@@H](O)[C@H](O)[C@@H]3O)cc2)s1 [Compound 13b, Methyl 5-[4-[(2R,3S,4S,5S,6R)-3,4,5-trihydroxy-6-(hydroxymethyl)tetrahydropyran-2-yl]oxyphenyl]thiophene-2-carboxylate]
HAI Titer EC>90 [3, 8]: 1.0 µM

NC(=O)Nc1csc(-c2ccc(O[C@H]3O[C@H](CO)[C@@H](O)[C@H](O)[C@@H]3O)cc2)c1 [Compound 13c, [5-[4-[(2R,3S,4S,5S,6R)-3,4,5-Trihydroxy-6-(hydroxymethyl)tetrahydropyran-2-yl]oxyphenyl]-3-thienyl]urea]
HAI Titer EC>90 [3, 8]: 1.0 µM

COC(=O)c1csc(-c2ccc(O[C@H]3O[C@H](CO)[C@@H](O)[C@H](O)[C@@H]3O)cc2)c1 [Compound 13d]
HAI Titer EC>90 [3, 8]: 2.0 µM

OCc1ccccc1-c1ccc(OC2OC(CO)C(O)C(O)C2O)cc1 (stereo not shown) [Compound 14g]
fold less potent in HA titer ([3]; ortho 14g relative to meta 14h): over 5 fold | EC50 ([3]; read-out: 50% HA titer, Example 6 numbering): 16 µM | EC90 [3, 9]: 16 µM

OCc1ccc(-c2ccc(OC3OC(CO)C(O)C(O)C3O)cc2)cc1 (stereo not shown) [Compound 14i]
EC90 [3, 9]: 6 µM

CN(C)C(=O)c1cccc(-c2ccc(OC3OC(CO)C(O)C(O)C3O)cc2)c1 (stereo not shown) [JJ-I-93, N,N-dimethyl-3-[4-[3,4,5-trihydroxy-6-(hydroxymethyl)tetrahydropyran-2-yl]oxyphenyl]benzamide]
HAI Titer EC>90 [3]: 3.000 µM

COC1OC(CO)C(O)C(O)C1O (stereo not shown) [Methylaman, reference compound]
EC50 ([3]; read-out: HA 50% titer, Example 6 numbering): > 1000 µM

O=[N+]([O-])c1ccc(OC2OC(CO)C(O)C(O)C2O)cc1 (stereo not shown) [PNP-mannoside, reference compound]
HAI Titer EC>90 [3]: 31.000 µM

CCCCO[C@H]1O[C@H](CO)[C@@H](O)[C@H](O)[C@@H]1O [butyl-α-D-mannoside, reference compound]
EC90 ([3]; read-out: HAI Titer EC90): 125 µM
